Consider 1 compound from US5277897A, “In vivo enhancement of cellular accumulation of lipophilic cationic organometallic compounds by reduction of intramembrane potential” (Brigham and Women's Hospital, priority 1992, dated 1994).

The test system of series [1] is cultured chick heart cells. Nature of the series: Effect of MSA on Tc-MIBI net accumulation (FIG. 3). Type of series: cell-based. The conditions noted are these: TPB 10^-5 M, n=3. The procedure: FIG. 3. Effect of MSA on Tc-MIBI net accumulation. Preparations were incubated for the times indicated in Tc-MIBI loading buffer containing 5.4 mM KCl (.quadrature., .smallcircle.) or 5.4 mM K-MSA ( , ·; prepared by equimolar substitution of K-MSA KCl) in the absence (.quadrature., ) or presence (.smallcircle., ·) of TPB (10^-5 M). Each point represents the mean ±SEM of 3 determinations.
Control buffer was a modified Earle's balanced salt solution (MEBSS) with the following composition (mN) Na^30, 145; K^+, 5.4; Ca^2, 1.2; Mg^2+, 0.8; Cl, 152; H2 PO4, 0.8; SO4^2-, 0.8; dextrose, 5.6; HEPES, 4.0; and bovine calf serum, 1% (v/v); […]; 37° C. K-methanesulfonate was made by titration of methanesulfonic acid with KOH (Piwnica-Worms, D., et al., J. Gen. Physiol. 81:731-748 (1983)) and replaced […] in some solutions by equimolar substitution where indicated. Natetraphenylborate, CCCP, bumetanide and valinomycin were dissolved into DMSO prior to addition to buffer. DMSO alone has no significant affect on contractile activity, action potential configuration (Lieberman, M., et al., Dev. Biol. 31:380-403 (1973)) or Tc-MIBI uptake kinetics (Piwnica-Worms, D., et al., Circ. (in press)).
Monolayers of spontaneously contractile chick ventricular myocardial cells were obtained from disaggregated 10-day old chick embryo hearts by a slight modification of previously published methods (Horres, C. R., et al., In Pinson, A. (ed.), The Heart Cell in Culture, Boca Raton, CRC Press, pp. 77-108 (1987)). […] Cells were centrifuged at 400 g for 10 minutes, resuspended and combined in culture medium, counted with a hemocytometer and diluted to yield a suspension of 5×10^5 cells/ml. […]
Radioactive uptake methods have been described in detail (Piwnica-Worms, D., et al, Circ. (in press). Briefly, coverslips with confluent cells were removed from culture media and pre-equilibrated for 40-60 seconds in MEBSS buffer. Uptake and retention experiments were initiated by immersion of coverslips in 60 mm glass Pyrex dishes containing loading solution consisting of buffer with 0.1-0.6 nM [^99m Tc-MIBI] (0.01-0.4 Ci/nmole; 25-100 uCi/ml). Preparations were removed at various times and rinsed three times in 25 ml volumes of ice-cold (2° C.) isotope-free buffer for 8 seconds each to clear extracellular spaces. Preparations and aliquots of the loading buffer and stock solutions were counted in a well-type sodium iodide gamma counter after which cell protein on each coverslip was extracted in 1% sodium dodecylsulfate with 10 mM sodium borate and assayed by the method of Lowry (Lowry, O. H., et al., J. Biol. Chem. 193:265-275 (1951)). […]

The conditions of series [2]: diagnostic pharmaceutical; cited from earlier work.

Each structure is given as a SMILES string.

Consider `[C-]#[N+]CC(C)(C)OC.[C-]#[N+]CC(C)(C)OC.[C-]#[N+]CC(C)(C)OC.[C-]#[N+]CC(C)(C)OC.[C-]#[N+]CC(C)(C)OC.[C-]#[N+]CC(C)(C)OC.[Tc]` [Tc-MIBI, hexakis(methoxyisobutylisonitrile)technetium(I)], for which the Tc-MIBI uptake is 79.3±1.1 fmol Tc-MIBI/mg protein per nM in series [1] (130 mM K-MSA buffer, P=0.01) and 63.7±3.2 fmol Tc-MIBI/mg protein per nM in series [1] (130 mM KCl buffer + bumetanide 10^-5 M). The safety in humans entry in series [2] is reported as “shown to be safe in humans as a diagnostic pharmaceutical”.
